Test results reported in US5817669A, “Compounds, processes for the preparation thereof and anti-tumor agents” (Dainippon Pharmaceutical Co., Ltd., priority 1994, dated 1998).
Converted amounts (≈) assume the structure as drawn. Where two headings read alike, the source gives them in different places.

How the values were obtained:
[1] = system: MKN45 human stomach cancer; test: In vitro anti-tumor activity against MKN45 human stomach cancer (MTT); assay type: cell-based; details: MKN-45, MKN45, 72 h, MTT, read-out: IC50
Method: (§1) A culture medium containing 500 to 2,000 human cancer cells was put in an amount of 0.1 ml in each well of 96-well plate, and the cells were cultured for 20 hours under a condition of 37° C. and 5% carbon dioxide gas in air. After the culturing, a solution of test compounds of predetermined concentration was added, and then, the cells were cultured for further 72 hours. After the culturing, an MTT (5 mg/ml) solution was added in an amount of 0.01 ml in the respective wells, and the cells were cultured for further 4 hours. The supernatants of the culture medium were removed by suction, and then, 0.1 ml of dimethyl sulfoxide was put in respective well to dissolve the formed formazan, and, moreover, 0.1 ml of dimethyl sulfoxide was added.

[2] = system: WiDr human colorectal cancer; test: In vitro anti-tumor activity against WiDr human colorectal cancer (MTT); assay type: cell-based; details: 72 h, MTT, read-out: IC50
Method: as §1

[3] = system: AZ521 human stomach cancer; test: In vitro anti-tumor activity against AZ-521 human stomach cancer (MTT); assay type: cell-based; details: AZ-521, 72 h, MTT, read-out: IC50
Method: as §1

A427 human lung cancer = test: In vitro anti-tumor activity against A-427 human lung cancer (MTT); assay type: cell-based; details: A-427, 72 h, MTT, read-out: IC50
Method: as §1

[4] = system: murine P388 lymphocytic leukemia cells; test: Increases in life span of mice implanted with murine P388 lymphocytic leukemia cells; assay type: in vivo, SLC: BDF1 mice; details: ip; for ILS at 50 mg/kg / ILS at 1.56 mg/kg / ILS at 3.13 mg/kg / ILS at 6.25 mg/kg / ILS at 12.5 mg/kg / ILS at 25 mg/kg / ILS at 0.78 mg/kg: Mus musculus, P388, ip, 720 h
Method: 1×10^6 murine P388 lymphocytic leukemia cells were intraperitoneally implanted in each of SLC: BDF1 mice (8 to 10 weeks old, female, 7 animals per one group). A test compound (drug) was either dissolved in 0.1 N--NaOH or suspended in 0.4% carboxymethylcellulose solution, and the resultant solution or suspension was diluted with distilled water or 0.4% carboxymethylcellulose solution so as to give predetermined concentrations for administration. The obtained solution was intraperitoneally (ip) administered twice, namely on the day following the implantation (1st day) and the 5th day, each 0.2 ml. The life and death of the mice were observed over a period of 30 days, and the median survival time (hereinafter referred to as MST) was determined for each group, and, thus, the increase in life span (ILS; %) was calculated according to the following equation:
ILS (%)=[{(MST of the test group)/(MST of the control group)}-1]×100
Drug effect was judged in the following manner, according to the criterion of U.S. National Cancer Institute (NCI):
ILS=75% or higher: ++ (remarkably effective);
20 to 74%: + (effective);
19% or lower: - (ineffective)

HMV2 human melanoma = test: In vitro anti-tumor activity against HMV-2 human melanoma (MTT); assay type: cell-based; details: HMV-2, 72 h, MTT, read-out: IC50
Method: as §1

[5] = system: colon 26 murine tumor cells; test: Tumor growth inhibition effect on colon 26 murine tumor cells implanted mice; assay type: in vivo, SLC: CDF1 mice; details: Mus musculus, Colon 26, 504 h, ip, days 1-9, day 21 or 22, read-out: Tumor growth inhibition rate IR (%); for inhibition in vivo at 1.56 mg/kg: 1.56 mg/kg once a day; for inhibition in vivo at 3.13 mg/kg: 3.13 mg/kg once a day
Method: A 2% brei of colon 26 murine tumor cells was intracutaneously implanted each 0.1 ml in the abdominal part of SLC: CDF1 female mice (7 to 9 weeks old, 7 animals per one group). […] The obtained solutions were intraperitoneally (ip) administered each 0.2 ml once a day, from the day (1st day) following the implantation to the 9th day. On the 21st or 22nd day after the implantation, tumor weight was estimated from tumor diameters, and thus, the tumor growth inhibition rate (IR %) of the drug administered group in comparison with the control group was calculated according to the following equation. IR (%)=[1-{(MTW in the treated group)/(MTW in the control group)}]×10 0 MTW: mean tumor weight

[6] = system: KB human nasopharynx cancer; test: In vitro anti-tumor activity against KB human nasopharynx cancer (MTT); assay type: cell-based; details: KB, 72 h, MTT, read-out: IC50
Method: as §1

[7] = system: murine P388 lymphocytic leukemia cells; test: In vitro anti-tumor activity against murine P388 lymphocytic leukemia cells (MTT, 72 h); assay type: cell-based; details: Mus musculus; murine P388 cells, 72 h, MTT; read-out: IC50 (50% proliferation inhibitory concentration)
Method: Test compounds were tested for anti-tumor activity according to MTT [3-(4,5-dimethylthiazol-2-yl)-2,5-diphenyltetrazolium bromide] method, using murine P388 lymphocytic leukemia cells. […] The culture medium was centrifuged (4° C., 2,000 rpm for 20 minutes), and thus, the supernatants were removed by suction. Then, 0.1 ml of dimethyl sulfoxide was put in each well to dissolve the formed formazan, and, subsequently, another 0.1 ml of dimethyl sulfoxide was added. The absorbance (OD) of each of the obtained solutions was measured by use of Multiskan Bichromatic (main wavelength 570 nm, sub-wavelength 690 nm). […] IC50 :μg/ml) were calculated by the least squares method.

C33A human cervix cancer = test: In vitro anti-tumor activity against C-33A human cervix cancer (MTT); assay type: cell-based; details: C-33A, 72 h, MTT, read-out: IC50
Method: as §1

[8] = NCI criterion, read-out: Evaluation
[9] = days 1 and 5, in solution, read-out: ILS (%) (in solution)
[10] = days 1 and 5, in suspension, read-out: ILS (%) (in suspension)
[11] = NCI criterion, 3.13 mg/kg, read-out: Evaluation
[12] = NCI criterion, 6.25 mg/kg, read-out: Evaluation
[13] = NCI criterion, 12.5 mg/kg, read-out: Evaluation
[14] = NCI criterion, 25 mg/kg, read-out: Evaluation
[15] = 3.13 mg/kg, days 1 and 5, in solution, read-out: ILS (%) (in solution)
[16] = 3.13 mg/kg, days 1 and 5, in suspension, read-out: ILS (%) (in suspension)
[17] = 6.25 mg/kg, days 1 and 5, in solution, read-out: ILS (%) (in solution)
[18] = 12.5 mg/kg, days 1 and 5, in solution, read-out: ILS (%) (in solution)
[19] = 12.5 mg/kg, days 1 and 5, in suspension, read-out: ILS (%) (in suspension)
[20] = 25 mg/kg, days 1 and 5, in solution, read-out: ILS (%) (in solution)

| Structure (SMILES) | IC50 [1] [µg/mL] | IC50 [2] [µg/mL] | IC50 [3] [µg/mL] | IC50 (A427 human lung cancer) [µg/mL] | ILS at 50 mg/kg [4, 8] [%] | ILS at 50 mg/kg [4, 9] [%] | ILS at 50 mg/kg [4, 10] [%] | IC50 (HMV2 human melanoma) [µg/mL] | inhibition in vivo at 1.56 mg/kg [5] [%] | IC50 [6] [µg/mL] | IC50 [7] [µg/mL] | IC50 (C33A human cervix cancer) [µg/mL] | ILS at 3.13 mg/kg [4, 11] [%] | ILS at 6.25 mg/kg [4, 12] [%] | ILS at 12.5 mg/kg [4, 13] [%] | ILS at 25 mg/kg [4, 14] [%] | ILS at 3.13 mg/kg [4, 15] [%] | ILS at 3.13 mg/kg [4, 16] [%] | ILS at 6.25 mg/kg [4, 17] [%] | ILS at 12.5 mg/kg [4, 19] [%] | further results |
| --- | --- | --- | --- | --- | --- | --- | --- | --- | --- | --- | --- | --- | --- | --- | --- | --- | --- | --- | --- | --- | --- |
| CN[C@@H]1CN(c2ccc3c(=O)c(C(=O)O)cn(-c4nccs4)c3n2)C[C@H]1OC.Cl (single isomer, unassigned) [Compound 1-3, (-)-1,4-Dihydro-7-(trans-3-methoxy-4-methylamino-1-pyrrolidinyl)-4-oxo-1-(2-thiazolyl)-1,8-naphthyridine-3-carboxylic acid hydrochloride] | 0.222 | 0.503 | 0.11 | 0.107 | > 75 | > 275 | 200 | 0.234 | 50 | 0.208 | 0.02 | 0.148 | – | – | – | – | – | – | – | – | Evaluation ([4]; NCI criterion, 3.13 mg/kg): + (20 to 74%: + (effective)); Evaluation ([4]; NCI criterion, 6.25 mg/kg): ++ (ILS=75% or higher: ++ (remarkably effective)); Evaluation ([4]; NCI criterion, 12.5 mg/kg): ++ (ILS=75% or higher: ++ (remarkably effective)); Evaluation ([4]; NCI criterion, 25 mg/kg): ++ (ILS=75% or higher: ++ (remarkably effective)); ILS (%) (in solution) ([4]; 3.13 mg/kg, days 1 and 5, in solution): 63%; ILS (%) (in suspension) ([4]; 3.13 mg/kg, days 1 and 5, in suspension): 63%; ILS (%) (in solution) ([4]; 6.25 mg/kg, days 1 and 5, in solution): 88%; ILS (%) (in solution) ([4]; 12.5 mg/kg, days 1 and 5, in solution): 138%; ILS (%) (in suspension) ([4]; 12.5 mg/kg, days 1 and 5, in suspension): 125%; ILS (%) (in solution) ([4]; 25 mg/kg, days 1 and 5, in solution): 200%; inhibition in vivo at 2.21 mg/kg ([5]; 2.21 mg/kg once a day): 75% |
| CNC1CCN(c2ccc3c(=O)c(C(=O)O)cn(-c4nccs4)c3n2)C1 (stereo not drawn) [Compound 6] | 0.16 (≈ 0.431 µM) | 0.381 (≈ 1.03 µM) | 0.0622 (≈ 0.167 µM) | 0.0832 (≈ 0.224 µM) | > 75 | – | > 275 | 0.122 (≈ 0.328 µM) | 71 | 0.0987 (≈ 0.266 µM) | 0.0105 (≈ 0.0283 µM) | 0.156 (≈ 0.42 µM) | > 75 | > 75 | > 75 | > 75 | 100 | 100 | 138 | 200 | ILS at 1.56 mg/kg [4, 8]: 20 to 74%; ILS at 1.56 mg/kg [4, 9]: 63%; ILS at 12.5 mg/kg [4, 18]: 150%; ILS at 25 mg/kg [4, 20]: 225% |
| Cl.NC1CCN(c2ccc3c(=O)c(C(=O)O)cn(-c4nc(F)cs4)c3n2)C1 (stereo not drawn) [Compound 8, 7-(3-Amino-1-pyrrolidinyl)-1-(4-fluoro-2-thiazolyl)-1,4-dihydro-4-oxo-1,8-naphthyridine-3-carboxylic acid hydrochloride] | 0.143 | 0.323 | 0.0285 | 0.0625 | – | – | – | 0.0578 | 91 | 0.0494 | 0.00413 | 0.0712 | > 75 | – | > 75 | – | – | 175 | – | > 275 | ILS at 0.78 mg/kg [4, 8]: > 75%; ILS at 0.78 mg/kg [4, 10]: 75%; inhibition in vivo at 0.39 mg/kg ([5]; 0.39 mg/kg once a day): 57% |
| Cl.Nc1cc(N2CCC(N)C2)nc2c1c(=O)c(C(=O)O)cn2-c1nccs1 (stereo not drawn) [Compound 9, 5-Amino-7-(3-amino-1-pyrrolidinyl)-1,4-dihydro-4-oxo-1-(2-thiazolyl)-1,8-naphthyridine-3-carboxylic acid hydrochloride] | 0.148 | 0.412 | 0.0625 | 0.1 | > 75 | – | 250 | 0.211 | – | 0.106 | 0.00809 | 0.151 | > 75 | – | > 75 | – | – | 100 | – | 125 | inhibition in vivo at 3.13 mg/kg [5]: 62%; inhibition in vivo at 6.25 mg/kg ([5]; 6.25 mg/kg once a day): 97% |
| CC1(N)CCN(c2ccc3c(=O)c(C(=O)O)cn(-c4nccs4)c3n2)C1 (stereo not drawn) [Compound 10] | 0.468 (≈ 1.26 µM) | 0.797 (≈ 2.15 µM) | 0.292 (≈ 0.786 µM) | 0.153 (≈ 0.412 µM) | > 75 | > 275 | – | 0.386 (≈ 1.04 µM) | – | 0.19 (≈ 0.512 µM) | 0.0192 (≈ 0.0517 µM) | 0.247 (≈ 0.665 µM) | 20 to 74 | > 75 | > 75 | > 75 | 63 | 50 | 75 | 113 | ILS at 12.5 mg/kg [4, 18]: 100%; ILS at 25 mg/kg [4, 20]: 125%; inhibition in vivo at 3.13 mg/kg [5]: 74% |
